Reference: patent US20070225492A1 (priority 2004, published 2007)
Where a name gives a salt, the structure may show the parent alone.

melting point [°C]	SMILES
123 to 125	CCC(=O)N1CC2CC(C1)N2C/C=C(\C)c1ccccc1 (as salt: hydrochloride)
160 to 163	CCC(=O)N1CC2CC(C1)N2C/C=C(\CC)c1ccccc1 (as salt: hydrochloride)
